Among the test systems are NCI/ADR-RES ovarian; PC-3 prostate; T-47D breast; DU-145 prostate.
Test in all cases: DTP human tumour cell line panel, 48 h

By GI50 is commonly meant the concentration at which growth is held to half of that of the control. The TGI is the concentration giving total growth inhibition.

Each structure is given as a SMILES string. Where “and” joins values, the source holds several entries; their conditions need not be identical. Identical values can stand only once.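 Exposure lasted 48 hours, with cells grown in 96-well plates and compounds tested at five concentrations. GI50: concentration for 50% inhibition of growth. TGI denotes the concentration required for complete inhibition of growth.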

In the case of `COc1cc2c(cc1OCCCN1CCN(CCCOc3cc4c(cc3OC)C(=O)N3C[C@H](F)C[C@H]3C=N4)CC1)N=C[C@@H]1C[C@@H](F)CN1C2=O`, the GI50 with NCI/ADR-RES ovarian is 9.18 µM; in the assay on PC-3 prostate it was 0.0546 µM; in the assay with T-47D breast, 0.0847 µM; with DU-145 prostate it was 0.083 µM. The TGI with NCI/ADR-RES ovarian is 47.3 µM; in the assay with T-47D breast, > 26.5 µM; in the assay with DU-145 prostate it was 6.16 µM.
For the molecule `COc1cc(/C=C/C(=O)c2cccc(-n3cc(-c4ccccc4)[nH]c3=O)c2)ccc1O`, the GI50 is 3.5 µM in the assay on NCI/ADR-RES ovarian, 2.87 µM in the assay on PC-3 prostate, 2.72 µM in the assay with T-47D breast and 2.32 µM in the assay with DU-145 prostate. Further, the TGI in the assay with NCI/ADR-RES ovarian was > 43 µM; in the assay on PC-3 prostate, 12 µM; in the assay with T-47D breast, 8.59 µM; with DU-145 prostate, 5.37 µM.
Take `NC(=O)c1c(NC(=O)c2ccc(C(F)(F)F)cc2Cl)sc2c1CCC(=O)C2`: the GI50 in the assay with NCI/ADR-RES ovarian is 0.448 µM; with PC-3 prostate, 0.164 µM; in the assay on T-47D breast, 0.238 µM; in the assay on DU-145 prostate, 3.83 µM. Further, the TGI turned out to be 3.38 µM with NCI/ADR-RES ovarian, 1.3 µM with PC-3 prostate, 4.73 µM with T-47D breast and 25 µM with DU-145 prostate.
For `O=NN(CC(=O)NNc1ccccc1)CC(=O)NNc1ccccc1`, the GI50 in the assay on NCI/ADR-RES ovarian is 14.2 µM; in the assay with PC-3 prostate, 5.64 µM; in the assay on T-47D breast, 6.1 µM; in the assay with DU-145 prostate it was > 100 µM. Further, the TGI in the assay with NCI/ADR-RES ovarian, with PC-3 prostate, in the assay on T-47D breast and with DU-145 prostate was > 100 µM throughout.
With `N#C/C(=C\c1ccccn1)c1nc2ccccc2o1`, the GI50 with NCI/ADR-RES ovarian is 33.4 µM; in the assay with PC-3 prostate, 17.6 µM; with T-47D breast it was 14.5 µM; in the assay on DU-145 prostate, 34.4 µM. Also, the TGI with NCI/ADR-RES ovarian was > 100 µM; in the assay on PC-3 prostate it was 50.5 µM; in the assay with T-47D breast, 34.3 µM; in the assay on DU-145 prostate, > 100 µM.
`O=C1CC[C@@H]2[C@H]3CCC(=O)c4c3c(c3cccc(O)c3c4O)O[C@@]23C(=O)c2cccc(O)c2C(O)=C13`: the GI50 in the assay with NCI/ADR-RES ovarian, in the assay with PC-3 prostate and with DU-145 prostate was > 100 µM throughout. Besides, the TGI in the assay on NCI/ADR-RES ovarian, in the assay on PC-3 prostate and with DU-145 prostate was > 100 µM each time.
With `Nc1ccccc1SC(CC(=O)c1ccccc1)c1c(Cl)cccc1Cl` (stereo unspecified), the results for the GI50 with NCI/ADR-RES ovarian, with T-47D breast and with DU-145 prostate were 3.72 µM, 2.81 µM and 5.8 µM, respectively. For the same molecule, the TGI with NCI/ADR-RES ovarian was 28.5 µM; in the assay with T-47D breast, 13.4 µM; in the assay with DU-145 prostate it was 18.3 µM.
As to `COc1ccc(C(=O)c2no[n+]([O-])c2C(=O)c2ccc(OC)cc2)cc1`, the GI50 was 10.7 µM in the assay with NCI/ADR-RES ovarian, 5.21 µM in the assay with PC-3 prostate and 14.5 µM in the assay on DU-145 prostate. Besides, the TGI in the assay with NCI/ADR-RES ovarian turned out to be 28.7 µM; in the assay on PC-3 prostate, 16.8 µM; in the assay with DU-145 prostate, 27.6 µM.
`O=C1c2ccccc2-n2c1nc1ccc([N+](=O)[O-])cc1c2=O`: the TGI in the assay on NCI/ADR-RES ovarian, with PC-3 prostate, in the assay with T-47D breast and in the assay with DU-145 prostate was > 100 µM throughout.
For the molecule `Cc1nc2sc(C(=O)Nc3cccc4c3OCCO4)c(N)c2cc1C(C)O` (stereo unspecified), the GI50 was 3.28 µM with NCI/ADR-RES ovarian, 5 µM in the assay on PC-3 prostate, 5.33 µM in the assay on T-47D breast and 8.31 µM in the assay on DU-145 prostate. In addition, the TGI with NCI/ADR-RES ovarian, with PC-3 prostate, in the assay on T-47D breast and in the assay on DU-145 prostate was > 100 µM in each case.
Regarding `O=C(Nc1cccc2[nH]c(C(F)(F)F)nc12)c1ccc(Br)cc1F`, the GI50 was 3.35 µM in the assay on NCI/ADR-RES ovarian, 2.75 µM with PC-3 prostate, 2.26 µM in the assay with T-47D breast and 4.87 µM in the assay on DU-145 prostate. For the same molecule, the TGI with NCI/ADR-RES ovarian stood at 12.2 µM; with PC-3 prostate, 10.4 µM; in the assay on T-47D breast, 7.49 µM; in the assay on DU-145 prostate, 20.5 µM.
With `O=[N+]([O-])c1cc2c(ccc3ccccc32)o1`, the GI50 is 0.635 µM in the assay on NCI/ADR-RES ovarian, 1.85 µM with PC-3 prostate, 1.57 µM in the assay on T-47D breast and 0.341 µM in the assay on DU-145 prostate. Moreover, the TGI in the assay on NCI/ADR-RES ovarian turned out to be 5.96 µM; in the assay with PC-3 prostate, 14.5 µM; in the assay on T-47D breast, 31.9 µM; in the assay on DU-145 prostate, 4.81 µM.
Take `COc1ccc(/C(=N/O)c2cc(F)c(F)c(OC)c2F)cc1O`: the concentration for 50% growth inhibition (GI50) was 0.309 µM with NCI/ADR-RES ovarian, 0.565 µM in the assay with PC-3 prostate, 0.53 µM in the assay on T-47D breast and 1.88 µM in the assay with DU-145 prostate. For the same molecule, the TGI was 19.1 µM in the assay on NCI/ADR-RES ovarian, > 100 µM with PC-3 prostate, 72.4 µM with T-47D breast and > 100 µM with DU-145 prostate.
As to `CCOC(=O)c1c(C)n(Cc2ccc(Cl)cc2Cl)c2c1cc(O)c1[nH]c(Cc3ccccc3)nc12`, the GI50 with NCI/ADR-RES ovarian is 4.79 µM; in the assay with PC-3 prostate, 2.11 µM; in the assay with T-47D breast, 5.27 µM; in the assay on DU-145 prostate, 3.07 µM. Also, the TGI with NCI/ADR-RES ovarian turned out to be 17.3 µM; in the assay with PC-3 prostate, 5.62 µM; in the assay with T-47D breast it was 25.9 µM; in the assay on DU-145 prostate, 8.66 µM.
With `COc1cc(/C=C2\CC3C4CC=C5C[C@@H](N6CCCC6)CC[C@]5(C)C4CC[C@]3(C)[C@H]2OC(C)=O)ccc1OCCCn1ccnc1` (stereo partly specified), the GI50 in the assay on NCI/ADR-RES ovarian was 5.35 µM; in the assay with PC-3 prostate it was 0.958 µM; in the assay on T-47D breast it was 2.19 µM; in the assay with DU-145 prostate, 0.17 µM. Besides, the TGI with NCI/ADR-RES ovarian was 13.5 µM; in the assay with PC-3 prostate, 8.41 µM; in the assay with T-47D breast, > 50 µM; with DU-145 prostate, 1.49 µM.
Consider `CCc1n(Cc2ccc3ccccc3c2)cc[n+]1Cc1ccc2ccccc2c1`, for which the GI50 is 19.2 µM with NCI/ADR-RES ovarian, 0.699 µM with PC-3 prostate, 0.425 µM in the assay on T-47D breast and 0.965 µM in the assay with DU-145 prostate. In addition, the TGI in the assay on NCI/ADR-RES ovarian was 62.4 µM; with PC-3 prostate, 2.49 µM; with T-47D breast it was 4.7 µM; in the assay with DU-145 prostate, 4.23 µM.
In the case of `O=C1C=CC(=O)N1c1ccc2ccccc2c1`, the GI50 in the assay with NCI/ADR-RES ovarian is 21.5 µM; with PC-3 prostate, 18.1 µM; in the assay with T-47D breast, 3.73 µM; in the assay with DU-145 prostate, 12.3 µM. Further, the TGI in the assay on NCI/ADR-RES ovarian worked out at 55.7 µM; in the assay with PC-3 prostate, 37.8 µM; in the assay with T-47D breast, 14.7 µM; in the assay with DU-145 prostate, 25.6 µM.
With `O=C(Nc1ccc(Br)cc1)c1cc(Br)ccc1O`, the GI50 with NCI/ADR-RES ovarian was 0.523 µM and 1.16 µM; in the assay with PC-3 prostate, 0.973 µM and 2.69 µM; in the assay with T-47D breast, 0.337 µM and 0.604 µM; with DU-145 prostate, 0.539 µM and 2.03 µM. The TGI in the assay on NCI/ADR-RES ovarian is 8.28 µM; with PC-3 prostate it was 12.7 µM and > 29 µM; with T-47D breast it was 5.02 µM and 7.42 µM; in the assay on DU-145 prostate, > 47 µM and 14.1 µM.
With `CCOC(=O)CCC(NC(=O)c1ccc(Oc2nc3cc(N)cc(N)c3nc2-c2ccccc2)cc1)C(=O)OCC` (stereo unspecified), the GI50 was 27.5 µM in the assay with NCI/ADR-RES ovarian, 73.5 µM with PC-3 prostate, 24.6 µM in the assay on T-47D breast and 62.2 µM in the assay on DU-145 prostate. The TGI with NCI/ADR-RES ovarian is > 100 µM; in the assay with PC-3 prostate it was > 100 µM; in the assay on T-47D breast, 59.7 µM; with DU-145 prostate it was > 100 µM.
Turning to `Cc1nc2ccccc2c(/C=C/c2ccc(F)cc2)c1C(=O)/C=C/c1ccccc1`, the GI50 was 2.61 µM with NCI/ADR-RES ovarian, 2.53 µM with PC-3 prostate, 1.55 µM in the assay on T-47D breast and 2.34 µM with DU-145 prostate. In addition, the TGI in the assay with NCI/ADR-RES ovarian turned out to be 7.48 µM; with PC-3 prostate it was 8.81 µM; in the assay with T-47D breast, 9.87 µM; in the assay on DU-145 prostate it was 6.21 µM.
With `COc1cccc(C2=C(c3cn(C)c4c(C)cccc34)C(=O)NC2=O)c1`, the GI50 with NCI/ADR-RES ovarian is > 21.4 µM; in the assay on PC-3 prostate it was > 18.3 µM; in the assay on T-47D breast, > 20.2 µM; in the assay with DU-145 prostate, > 25 µM. In addition, the TGI with NCI/ADR-RES ovarian, in the assay on PC-3 prostate, in the assay on T-47D breast and with DU-145 prostate was > 25 µM in each case.
For `CCOC(=O)c1nc2sc(Cl)cn2c1/C=N/N=C(N)N`, the GI50 with NCI/ADR-RES ovarian was 39 µM; in the assay on PC-3 prostate, 24.4 µM; in the assay with T-47D breast, 30.6 µM; in the assay on DU-145 prostate it was 24.8 µM. Besides, the TGI is > 83.4 µM with NCI/ADR-RES ovarian, > 56.8 µM in the assay with PC-3 prostate, > 74 µM in the assay with T-47D breast and > 67.5 µM with DU-145 prostate.
`O=C1c2c[n+](Cc3ccccc3)ccc2-c2nc3ccccc3c3ccnc1c23`: the GI50 was 7.3 µM in the assay with NCI/ADR-RES ovarian, 0.826 µM in the assay with PC-3 prostate, 0.648 µM in the assay with T-47D breast and 0.417 µM in the assay on DU-145 prostate. In addition, the TGI in the assay on NCI/ADR-RES ovarian was found to be 33.3 µM; in the assay with PC-3 prostate, 3.92 µM; in the assay on T-47D breast it was 1.7 µM; in the assay with DU-145 prostate, 0.891 µM.
In the case of `Cc1c(C(=O)Nc2ccc(Oc3ccnc4cc(OCC(C)(C)O)ccc34)c(F)c2)c(=O)n(-c2ccccc2)n1C`, in the assay on T-47D breast, the GI50 is 2.79 µM and the TGI is > 100 µM.
Consider `CCCCCCCCCCCCNCCCc1ccccc1`, for which the figures for the GI50 in the assay on NCI/ADR-RES ovarian, in the assay on T-47D breast and in the assay with DU-145 prostate were 1.77 µM, 1.78 µM and 1.92 µM, respectively. Besides, the values for the TGI in the assay on NCI/ADR-RES ovarian, with T-47D breast and with DU-145 prostate were 3.5 µM, 3.37 µM and 3.51 µM, respectively.
